Source: paper PMC11513920, “Building Metabolically Stable and Potent Anti-HIV Thioether-Lipid Analogues of Tenofovir Exalidex: A thorough Pharmacological Analysis” (Journal of Medicinal Chemistry, 2024)

How the values were obtained:
[1] = Cellular cytotoxicity (cell viability, CellTiter 96 or resazurin); conditions: human, CC50, HEK293T cells, compounds formulated with HSA (5:1)
Protocol: (§9) Second, HIV IC50 and cellular CC50 were determined with a pseudoviral, whole (HEK293T) cell, nonreplicative HIV assay, using the HIV-1 subtype C strain MJ4 (refer to Experimental Methods). To account for the unique amphiphilic properties of TXL and the novel HTP-based prodrugs, all compounds were formulated in a human serum albumin (HSA) solution (5:1 drug:protein).
(§10) Assessment of cytotoxicity and antiviral activity of all final compounds in vitro was conducted according to previously reported procedures.[39] In summary, human embryonic kidney (HEK293T) cells maintained in high glucose (25 mM), Dulbecco’s modified Eagle’s medium (DMEM) supplemented with fetal bovine serum (10%), sodium pyruvate (1 mM), L-glutamine (2 mM), HEPES (25 mM), and gentamicin (50 μg/mL) were used for determinations. The cells were maintained in an incubator at 37 °C under 5% CO2 in a humidified atmosphere. For both cytotoxicity and antiviral screening, all compounds were evaluated in duplicate in at least two independent experiments. All final compounds were formulated with human serum albumin (HSA, 5:1 compound to HSA molar ratio) and subsequently diluted with complete DMEM to 200 μM. Fifty microliters of test compound serial dilutions (3-fold) were prepared in 96-well culture plates, after which 50 μL of HEK293T cells (2 × 10^4 cells/well) was added. […] Cytotoxicity was then assessed by quantifying cell viability using the CellTiter 96 Aqueous One Solution Cell Proliferation Assay (Promega, Madison, WI) or resazurin sodium salt (cat# R7017, Merck, Darmstadt, Germany).[61] […] Antiviral activity was then assessed using a single-cycle, nonreplicating, envelope deleted HIV pseudoviral in vitro assay.[62],[63] The assay relies on the introduction of the firefly luciferase gene into HEK293T cells through infection with HIV-like viral particles, containing Reverse Transcriptase (RT) and Integrase (IN) from the HIV-1 subtype C strain MJ4.[64] The expression of the luciferase in the cells is directly proportional to the level of infection by the HIV-like viral particles and can be used to assess the inhibition of HIV-1 RT and IN. To evaluate anti-HIV activity, 3-fold serial dilutions of all final compounds were prepared in 50 μL over the noncytotoxic concentration range (as determined from the cytotoxicity screens described above) in 96-well culture plates. HEK293T cells (2 × 10^4 cells/well) and HIV-like viral particles, standardized to produce a luminescence signal of 1 × 10^6 relative light units (RLUs) in the growth medium only control, were combined, and 50 μL was added to the wells containing serially diluted test compounds. […] The expression of luciferase was subsequently quantified by adding 100 μL of the Bright-Glo Luciferase Assay substrate (Promega, Madison, WI) to each well of the 96-well plates. After incubation at rt for 3 min, luminescence was quantified on the GloMax Explorer Multimode Microplate Reader (Promega, Madison, WI).

[2] = Human liver microsome stability; conditions: for half-life at 3 μM / half-life at 2.083 h, 3 µM / remaining at 2 h, 3 μM: human; for remaining at 2 h, 3 μM: HLM % remaining; for remaining at 2 h, 3 μM / HLM % remaining: relative percent remaining of prodrug at 120 min
Protocol: Human liver microsomes (HLMs, 20 mg/mL) and CD-1 mouse liver microsomes (MLMs, 20 mg/mL) were purchased from Xenotech. NADPH was purchased from Sigma-Aldrich and prepared in 10 mM stock solutions of distilled H2O (Invitrogen UltraPure). […] Test compounds and positive controls were initially dissolved in MeOH to make 10 mM stock solutions. Sample solutions were then further diluted in 70/30 MeOH/H2O to 500 μM. Next, the reactions were prepared by mixing human or mouse liver microsomes (55 μL) with potassium phosphate buffer (100 mM, 928 μL) in 1.5 mL Eppendorf tubes. The test compounds (6.6 μL of 500 μM solution) were subsequently added to the suspensions, and the reaction mixtures were incubated at 37 °C for 5 min. Afterward, the liver microsome reactions were initiated with 110 μL of 10 mM NADPH and further incubated at 37 °C for the designated time course of the study. […] Each test compound was run in tandem with positive and negative control experiments for quality assurance. Positive control reactions were conducted at a final volume of 550 μL for a single run of each time point.
For both LM and plasma stability assays, each data point was analyzed in duplicate using in-between blank washes to avoid carry over and to equilibrate the column for the subsequent runs. Averages of these duplicate for individual compounds at each time point were then normalized to the data at 0 min, representing 100% test compound remaining or 0% metabolism. Half-lives (t1/2) were calculated by plotting ln of % test compound remaining versus time and performing linear regression to determine slope.
Metabolic Stability Assays
Liver Microsome Stability
Liver Microsome Stability Assay Setup Example
Quenching Mixture: 100 µL MeOH with ISTD (2 µM d5-7-ethoxycoumarin).
Final Volume After Quenching: 200 µL (100 µL from reaction mixture + 100 µL quencher
solution; ISTD final concentration of 1.0 µM).

[3] = system: HIV-1 subtype C strain MJ4; assay: Single-cycle non-replicating HIV pseudoviral luciferase assay in HEK293T cells; conditions: Human immunodeficiency virus 1, HEK-293T, read-out: HIV IC50
Protocol: as §9, §10

[4] = system: HepaRG cells; assay: HepaRG cellular uptake; conditions: 20 µM
Description: (§11) Naturally, due the metabolic complexity of HepaRG cells, we specifically analyzed prodrug cellular uptake and stability, as represented by Cmax and intrinsic clearance (Clint,u) accordingly (Figure 7 and Table 9).
(§12) The HepaRG cell line (HPRGC10, Thermo Fisher Scientific) was used to evaluate the cellular permeability and metabolic stability for select final compounds in vitro. The cells were initially thawed with working media composed of HepaRG Thaw, Plate, & General Purpose Medium Supplement (HPRG670), Williams Medium E (100 mL), and GlutaMax (1 mL), all purchased from Thermo Fisher Scientific. […] After the thawing medium was aspirated from each well, the cells were cultured for an additional 6 days with working media consisting of HepaRG Maintenance/Metabolism Medium Supplement (HPRG720), Williams Medium E (500 mL), and GlutaMax (1 mL), all purchased from Thermo Fisher Scientific. Upon completing the 7-day culture period, HepaRG cells were plated in enough wells to allow for duplicate analysis of prodrugs in two independent cellular uptake or metabolic stability experiments. All studied compounds were formulated with human serum albumin (HSA, 5:1 compound to HSA molar ratio) and subsequently diluted to a 20 μM final concentration with assay medium composed of serum-free INVITROGRO HI Medium and TORPEDO Antibiotic Mix purchased from BioIVT. For cellular uptake determinations, the maintenance/metabolism medium was first aspirated from each well, and then the plated cells were spiked with 1.0 mL of test compound stock solution. Subsequently, the plate was incubated at 37 °C under 5% CO2 environment over the desired time course (seven data points/compound). Blank wells not treated with prodrug were included in assay runs as controls and initial time points (0 min). At each time point, the test compound solution was removed from the appropriate wells, and the plated cells were washed with 1.0 mL of DPBS twice. The HepaRG cells were then extracted with 500 μL of cold ISTD solution (1 μM 7-ethoxy-d5-coumarin in 70/30 MeOH/H2O), and the quenched aliquots were centrifuged at 15,000 g for 10 min at 4 °C. […] After obtaining prodrug Cmax and Tmax values from the cellular uptake assay, HepaRG metabolic stability was then assessed. Following the initial 7-day culture procedure, the maintenance/metabolism medium was aspirated from each well, and the plated cells were spiked with 1.0 mL of test compound stock solution. […] The test compound solution was then removed from each well and replaced with untreated dilution medium (i.e., serum-free INVITROGRO HI Medium and TORPEDO Antibiotic Mix), initializing the stability determination. The HepaRG plate was once more incubated at 37 °C under 5% CO2 atmosphere over the desired time course (nine data points/compound), and sample preparation and analysis were handled in identical fashion to cellular uptake experiments.

[5] = HepaRG cellular uptake; conditions: human, HepaRG Cmax, 20 μM, HSA formulation 5:1, recorded after 3 h incubation
Description: as §11, §12

[6] = system: HepaRG cells; assay: HepaRG cellular metabolic stability; conditions: for HepaRG t1/2: after 3 h loading at 20 μM, 37 °C
Description: as §11, §12

[7] = HepaRG cellular metabolic stability; conditions: human, other cell line; for hepatocyte CLint at 20 μM: HepaRG Clint,u, calculated from cellular t1/2; for half-life at 20 μM: HepaRG t1/2, after 3 h loading at 20 μM, 37 °C
Description: as §11, §12

[8] = Mouse plasma stability; format: in vitro ADME; conditions: male, BALB/C, mouse, plasma; 3 μM, 37 °C, 240 min course; read-out: mouse plasma t1/2
Protocol: (§1) Human plasma (lithium heparin (LiHep) mixed, gender pooled, 0.2 μm filtered) and mouse plasma (BALB/C, LiHep mixed, male pooled, 0.2 μm filtered) were purchased from BioIVT. Procaine (Sigma-Aldrich) served as a positive control for both human and mouse plasma experiments. […] Next, the human or mouse plasma (994 μL) was aliquoted into 1.5 mL Eppendorf tubes with duplicates (reactions A and B) being prepared for each compound. The plasma was then incubated at 37 °C for 10 min. […] This procedure provided duplicate experiments with a final volume of 1000 μL (<0.2% organic solvent content) and a final test compound concentration of 3 μM. Aliquots (100 μL) were removed from each reaction mixture at 0, 30, 60, 120, and 240 min time intervals and quenched with 150 μL of cold ISTD solution (2 μM 7-ethoxy-d5-coumarin in MeOH). […] The positive control reaction was conducted at a final volume of 1000 μL for a single run of each time point. Finally, the negative control experiment was conducted with test compounds in Dulbecco’s phosphate buffered saline without calcium and magnesium (DPBS, Fisher Scientific, 143 μL) and analyzed at the 240 min time point.
(§2) Plasma Stability Assay Setup Example
(§3) Test Compound: 994 µL Human or Mouse Plasma + 6.0 µL TC (500 µM, Vial A).
(§4) 994 µL Human or Mouse Plasma + 6.0 µL TC (500 µM, Vial B).
(§5) Positive Control: 994 µL Human or Mouse Plasma + 6.0 µL Procaine (500 µM).
(§6) Negative Control: 142 µL DPBS (1X, pH 7.1-7.3) + 0.9 µL TC (500 µM).
(§7) Quenching Mixture: 150 µL MeOH with ISTD (2 µM d5-7-ethoxycoumarin).
(§8) Final Volume After Quenching: 250 µL (100 µL from reaction mixture and 150 µL quencher
solution; ISTD final concentration of 1.2 µM). […]

[9] = Human plasma stability; format: in vitro ADME; conditions: both sexes, human, plasma; 3 μM, 37 °C, 240 min course; read-out: human plasma t1/2
Protocol: as §1, §2, §3, §4, §5, §6, §7, §8
solution; ISTD final concentration of 1.2 µM).
Human Plasma Stability of Compound 2a at 37 °C
Figure S29. In vitro human plasma stability of 2a (5 points over 240 min) with procaine serving

[10] = system: HEK293T cells; assay: Cellular cytotoxicity (cell viability, CellTiter 96 or resazurin); conditions: HEK293T cells, 48 h, compounds formulated with HSA (5:1)
Protocol: as §9, §10

[11] = Solubility in antiviral/cytotoxicity assay medium; format: physicochemical; conditions: despite formulation with HSA
Description: Nevertheless, due to the promising metabolic profile of 2i and 2j, our lab is continuing to analyze TXL analogs with chain lengths beyond 20 atoms and will disclose a report in the future. However, for the sake of this study, 2a remained as the most pharmacologically attractive starting point for ω-functionalization.

[12] = microsomes, HLM t1/2, HLM 1 mg/mL, 3 μM compound, NADPH, 37 °C, 120 min course

Compound | CC50 at 48 h [1] | half-life at 3 μM [2, 12] | half-life at 2.083 h, 3 µM [2, 12] | remaining at 2 h, 3 μM ([2]; microsomes) | also measured
C[C@H](Cn1cnc2c(N)ncnc21)OCP(=O)(O)OCCCSCCCCCCCCCCCOC1CCCCC1.N [23d] | > 100 µM | 0.8 to 0.833 h | 0.7983 ± 0.00667 h | – | –
CCCCCCCCCCCCSCCCOP(=O)(O)CO[C@H](C)Cn1cnc2c(N)ncnc21.N [2g] | > 100 µM | – | 0.188 ± 0.00333 h | – | –
C[C@H](Cn1cnc2c(N)ncnc21)OCP(=O)(O)OCCCSCCCCCCCCCCCOc1ccc(F)cc1.N [23c] | > 100 µM | 0.8 to 0.833 h | 0.82833 ± 0.0005 h | – | –
C#CCCCCCCCCCCCCCCSCCCOP(=O)(O)CO[C@H](C)Cn1cnc2c(N)ncnc21 [15b] | – | – | – | – | IC50 [3]: 0.024 to 0.028 µM; half-life at 3 μM ([2]; liver microsomes): > 1.58 h; half-life at 2.083 h, 3 µM ([2]; liver microsomes): 1.6 ± 0.03 h
C[C@H](Cn1cnc2c(N)ncnc21)OCP(=O)(O)OCCCSCCCCCCCCCCCOc1ccccc1.N [23a] | > 100 µM | 0.133 h | 0.14 ± 0.00167 h | – | –
COC(=O)CCCCCCCCCCCCCCCSCCCOP(=O)(O)CO[C@H](C)Cn1cnc2c(N)ncnc21.N [23e] | > 100 µM | – | 0.0917 ± 0.005 h | – | –
C[C@H](Cn1cnc2c(N)ncnc21)OCP(=O)(O)OCCCSCCCCCCCCCCCCC#CC(C)(C)C.N [15e] | > 100 µM | > 2 h | – | 71% | mean prodrug concentration in HepaRG cells ([4]; 0.5 h): 169.76 ng/mL; mean prodrug concentration in HepaRG cells ([4]; 1 h): 211.84 ng/mL; mean prodrug concentration in HepaRG cells ([4]; 2 h): 233.02 ng/mL; mean prodrug concentration in HepaRG cells ([4]; 3 h): 241.98 ng/mL; mean prodrug concentration in HepaRG cells ([4]; 4 h): 281.89 ng/mL; mean prodrug concentration in HepaRG cells ([4]; 6 h): 321.96 ng/mL; Cmax at 3 h, 20 μM [5]: 242 ± 5.5 ng/mL; IC50 [3]: 0.196 µM; HepaRG t1/2 [6]: 1.11 ± 0.0833 h; HepaRG Clint,u ([6]; calculated from cellular t1/2): 18.9 μL/min/million cells; hepatocyte CLint at 20 μM [7]: 18 to 19 µL/min/1e6 cells; half-life at 20 μM [7]: 1.12 to 1.18 h
CC(C)[Si](C#CCCCCCCCCCCCSCCCOP(=O)(O)CO[C@H](C)Cn1cnc2c(N)ncnc21)(C(C)C)C(C)C.N [15d] | 59.3 ± 2.4 µM | > 2 h | – | > 95% | –
CCCCCCCCCCCCCCSCCCOP(=O)(O)CO[C@H](C)Cn1cnc2c(N)ncnc21.N [2h] | > 100 µM | – | 0.26 ± 0.00167 h | – | –
CCCCSCCCCCCCCCCCCCCCOP(=O)(O)CO[C@H](C)Cn1cnc2c(N)ncnc21.N [2f] | > 100 µM | – | 0.32833 ± 5e-05 h | – | –
CCN(CC)CCOC(=O)c1ccc(N)cc1 [Procaine, reference compound] | – | – | – | – | half-life at 3 μM [8]: 42 s; half-life at 3 μM [9]: 24 s
C[C@H](Cn1cnc2c(N)ncnc21)OCP(=O)(O)OCCCSCCCCCCCCCCCCc1ccccc1.N [16f] | > 100 µM | 1.13 h | 1.14 ± 0.00167 h | – | –
C[C@H](Cn1cnc2c(N)ncnc21)OCP(=O)(O)OCCCSCCCCCCCCCCCSc1ccccc1.N [23b] | > 100 µM | – | 0.132 ± 0.00333 h | – | –
C[C@H](Cn1cnc2c(N)ncnc21)OCP(=O)(O)OCCCSCCCCCCCCCCC#Cc1ccc(F)cc1.N [15g] | > 100 µM | > 2 h | – | 67% | –
CCCCCCCCCCCCCCCCCSCCOP(=O)(O)CO[C@H](C)Cn1cnc2c(N)ncnc21.N [2b] | 29 µM | 1.1 h | 1.1 ± 0.0433 h | – | CC50 [10]: 28.6 ± 3.7 µM
CCCCCCCCCCCCCCCCCCSCCCOP(=O)(O)CO[C@H](C)Cn1cnc2c(N)ncnc21.N [2i] | – | > 2 h | – | 95% | solubility in the assay medium [11]: poor solubility; HLM % remaining [2]: > 95%
C[C@H](Cn1cnc2c(N)ncnc21)OCP(=O)(O)OCCCSCCCCCCCCCCC#Cc1ccccc1.N [15f] | > 100 µM | 1.18 h | 1.19 ± 0.0183 h | – | –
CCCCCCCCCCSCCCCCCCCCOP(=O)(O)CO[C@H](C)Cn1cnc2c(N)ncnc21.N [2d] | > 100 µM | – | 0.222 ± 0.00833 h | – | –
C[C@H](Cn1cnc2c(N)ncnc21)OCP(=O)(O)OCCCSCCCCCCCCCCCCCCC(C)(C)C.N [16e] | 24 ± 1.4 µM | > 2 h | – | 95% | mean prodrug concentration in HepaRG cells ([4]; 0.5 h): 625.22 ng/mL; mean prodrug concentration in HepaRG cells ([4]; 1 h): 984.12 ng/mL; mean prodrug concentration in HepaRG cells ([4]; 3 h): 1100.03 ng/mL; mean prodrug concentration in HepaRG cells ([4]; 4 h): 1000.18 ng/mL; mean prodrug concentration in HepaRG cells ([4]; 6 h): 1196.77 ng/mL; Cmax at 3 h, 20 μM [5]: 1100 ± 63.6 ng/mL; IC50 [3]: 0.177 µM; HLM % remaining [2]: > 95%; HepaRG t1/2 [6]: 2.052 ± 0.05 h; hepatocyte CLint at 20 μM [7]: 10.2 µL/min/1e6 cells; half-life at 20 μM [7]: 2.05 h
CCCCCCCCCCCCCCCCCCCCSCCCOP(=O)(O)CO[C@H](C)Cn1cnc2c(N)ncnc21.N [2j] | – | > 2 h | – | 95% | solubility in the assay medium [11]: poor solubility; HLM % remaining [2]: > 95%
C[C@H](Cn1cnc2c(N)ncnc21)OCP(=O)(O)OCCCSCCCCCCCCCCC#CC1CCCCC1.N [15h] | > 100 µM | > 2 h | – | 67% | HLM % remaining [2]: 70%
CCCCCCCCCCCCCSCCCCCCOP(=O)(O)CO[C@H](C)Cn1cnc2c(N)ncnc21.N [2c] | > 100 µM | 1.1 h | 1.1 ± 0.05 h | – | –
C[C@H](Cn1cnc2c(N)ncnc21)OCP(=O)(O)OCCCSCCCCCCCCCCCCC#C[Si](C)(C)C.N [15c] | > 100 µM | > 1.58 h | – | 82% | IC50 [3]: 0.024 to 0.028 µM; HLM t1/2 ([2]; HLM 1 mg/mL, 3 μM compound, NADPH, 37 °C, 120 min course): > 2 h
CCCCCCCSCCCCCCCCCCCCOP(=O)(O)CO[C@H](C)Cn1cnc2c(N)ncnc21.N [2e] | > 100 µM | – | 0.3433 ± 0.00167 h | – | –
